# Experimental data from patent US11040101B2, “Nanoparticles for cancer therapy and diagnosis” (UCL BUSINESS PLC, priority 2019, dated 2021).
# Biological target: cathepsin B (Homo sapiens, UniProt P07858)
# Assay: Time-dependent fluorescence emission of ICG systems with or without cathepsin B
# Type: biochemical
# Conditions: after 24 h at 37° C. in PBS
# Description: The equivalent ICG concentration in all systems was 6 μg/mL. Fluorescence emission spectra of these systems were acquired over the course of 48 h. The excitation wavelength of 740 nm was used to obtain the fluorescence spectra. For the afore-mentioned experiments, spectra and fluorescence intensities were obtained using a CLARIOstar® High Performance Monochromator Multimode microplate reader (BMG LABTECH, UK).
smiles,measurement,value
"CC1(C)C(/C=C/C=C/C=C/C=C2\N(CCCCS(=O)(=O)O)c3ccc4ccccc4c3C2(C)C)=[N+](CCCCS(=O)(=O)[O-])c2ccc3ccccc3c21 [free ICG, Indocyanine green]",fluorescence emission of free ICG,suppressed
